Data from patent US20190175685A1, “METHODS OF TREATING AND PREVENTING CANCER TREATMENT SIDE EFFECTS” (FILAMENT BIOSOLUTIONS INC., priority 2016, published 2019).
Entries after “also recorded” stand apart in the source; their conditions may differ. Residues, ends and D or L forms follow the SMILES beside them.

How the values were obtained:
[1] = tested on: small intestinal crypt survival and regeneration; assay: Intestinal crypt survival after irradiation in a murine model; format: in vivo, mice; details: for number of surviving and regenerating crypts, pre-irradiation treatment versus treatment concurrent with radiation: oral twice daily 0.2 ml, day -5 to +4 compared with day 0 to +4, 13 Gy on day 0, scored day 4 post-irradiation
Excerpt: In this example irradiation was used to target the proliferating clonogenic cells of the crypt. Following irradiation, crypt cells can become impaired and undergo apoptosis, or programmed cell death, resulting in a reduction in the number of viable crypts, which could regenerate and heal the intestinal tissue. The more crypts that are lost the greater the level of ulceration, which can manifest as the symptoms of mucositis. […] This model of crypt cell survival is therefore often used as a surrogate for manifestation of mucositis, e.g., oral mucositis.
In this example the efficacy of orally administered Alanyl-Glutamine (Ala-Gln) and Glutamine (Gln) on small intestinal crypt survival and regeneration and maintenance of villus structure was assessed in response to radiation insult in a murine model. The crypt cells were measured at 4 days post high-dose irradiation, a time at which crypt cells affected by radiation have died and surviving cells begin to regenerate. The level of crypt cell survival at this time directly correlates to severity of ulceration and ultimately animal survival.
Ala-Gln and Gin were administered orally twice daily at a volume of 0.2 ml either pre- and post-irradiation (day −5 to day 4), or post-irradiation alone (day 0 to day 4). The animals were given doses of Ala-Gln at a concentration of 39.65 mg/ml and Gln at a concentration of 26.75 mg/ml, which contain molar equivalent doses of Gin. Vehicle control animals were administered 0.2 ml of water orally twice daily.
Animals were irradiated on day 0 at 3 pm. Irradiation was performed using an XStrahl RS320 X-ray set, operated at 300 Kv, 10 Ma. Radiation was delivered at a dose rate of 0.832 Gy/min using a single uniform dose of 13 Gy radiation. A dosimetry device was placed in the irradiation chamber to confirm the dose received. […]
For each animal in the study, ten intestinal circumferences were analyzed, providing a total of 80 circumferences per treatment group available for analysis. The number of surviving and regenerating crypts per circumference was scored and the average per group was determined.

[2] = Plasma glutamine levels after a single oral gavage dose in rats; format: in vivo, male Sprague Dawley rats; details: for change in plasma glutamine levels versus pre-dose: high, medium and low dose, 3 to 540 minutes after dose, UHPLC/MS/MS
Method: Alanyl-Glutamine and glutamine were administered as a single dose by oral gavage, with deionized water as the vehicle, into male Sprague Dawley rats. The oral gavage of Alanyl-Glutamine and glutamine was administered to different groups at three distinct levels, a high, medium and low dose. Each dose level contained molar equivalent amounts of Glutamine (doses selected to correspond to relevant human doses) so that the resulting changes in plasma Glutamine levels could be directly compared in vivo. The concurrent control group received the vehicle (deionized water) by oral gavage. The dose volume was 20 ml/kg for the oral gavage. Each treatment group consisted of three males. For pharmacokinetic evaluation, blood samples were collected via a jugular vein cannula (JVC) from 3 animals/group/time point prior to dose administration and at 3, 10, 20, 40, 60, 90, 180, 360, and 540 minutes after dose administration. Each sample was analyzed to determine plasma glutamine concentration using a qualified ultra-high performance liquid chromatography mass spectrometry method (UHPLC/MS/MS), developed expressly for the determination of glutamine levels in rat plasma. A subtractive analysis of the plasma levels was then performed, in which the data from each individual animal was subtracted from their pre-dose plasma glutamine levels. The resulting data-points were then averaged for each dosing group and graphed, and represent the change in plasma glutamine after administration of the two different compositions.

NC(=O)CC[C@H](N)C(=O)O [glutamine, reference compound]
number of surviving and regenerating crypts, pre-irradiation treatment versus treatment concurrent with radiation [1]: significantly more crypts
change in plasma glutamine levels versus pre-dose [2]: increase in glutamine levels in the plasma at all dose levels

C[C@H](N)C(=O)N[C@@H](CCC(N)=O)C(=O)O [Alanyl-Glutamine, L-alanyl-L-glutamine] (H-Ala-Gln-OH)
average number of crypts, Ala-Gln versus Gln ([1]; groups treated pre-irradiation (-5 to +4), molar equivalent doses of Gln, 13 Gy, scored day 4): higher average number of crypts
number of surviving and regenerating crypts, pre-irradiation treatment versus treatment concurrent with radiation [1]: significantly more crypts
plasma glutamine levels, Alanyl-Glutamine versus glutamine at equivalent molar doses ([2]; each of three dose levels (high, middle, low)): higher plasma glutamine levels at each dose; also recorded: increased more
change in plasma glutamine levels versus pre-dose [2]: increase in glutamine levels in the plasma at all dose levels
